Read-outs that look alike come from different tables or passages of the source.
What was measured:
aromatase [1] = molecular target: T1, aromatase (Homo sapiens, UniProt P11511); assay: Aromatase by tritiated water assay in minced scalp skin samples, with and without aromatase inhibitor; format: biochemical; design: endogenous in cells; host or cells: cultured human non-follicular skin fibroblast lines (beard, occipital scalp, frontal scalp); conditions: addition of 25 nmol to minced scalp skin samples
T1 sequence (P11511 1-503): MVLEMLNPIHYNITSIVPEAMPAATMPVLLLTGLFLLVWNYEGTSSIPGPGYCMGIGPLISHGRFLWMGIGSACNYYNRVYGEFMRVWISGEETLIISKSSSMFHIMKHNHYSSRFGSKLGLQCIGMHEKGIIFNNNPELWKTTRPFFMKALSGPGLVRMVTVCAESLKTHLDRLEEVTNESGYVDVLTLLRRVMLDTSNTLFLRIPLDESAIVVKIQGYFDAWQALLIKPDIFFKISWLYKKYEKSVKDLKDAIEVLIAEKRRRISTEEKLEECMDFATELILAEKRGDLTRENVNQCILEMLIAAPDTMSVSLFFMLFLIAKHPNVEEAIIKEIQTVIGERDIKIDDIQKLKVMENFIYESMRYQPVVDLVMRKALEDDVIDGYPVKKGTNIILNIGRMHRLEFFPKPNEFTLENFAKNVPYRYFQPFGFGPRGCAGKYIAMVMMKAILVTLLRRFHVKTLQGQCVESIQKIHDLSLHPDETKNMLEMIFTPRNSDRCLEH
Method: To determine whether the results obtained using cell culture are representative of events occurring in vivo aromatase was measured by the tritiated water assay in skin samples from male and female scalp. Tissue was minced and then incubated with 1β^3 H-androstenedione together with a source of NADPH. Each assay was done in the presence and absence of an aromatase inhibitor (4OH-androstenedione). Placental tissue was used as a positive control.

aromatase [2] = molecular target: T1, aromatase; assay: Aromatase activity by tritiated water release assay in cultured skin fibroblasts: substrate kinetics and inhibition
Method: (§2) Enzymic kinetic values were established by incubating cells with the substrate (androstenedione) in a range of concentrations.
(§3) Enzyme kinetic values were established by incubating cells with the substrate (androstenedione) in a range of concentrations.

[3] = tested on: aromatase activity in skin fibroblasts; assay: Stimulation of fibroblast aromatase by pre-incubating cultured skin fibroblasts with hormones (tritiated water release assay); format: cell-based, human; conditions: for fold induction at 0.01 µM: Homo sapiens, Skin fibroblast
Method: (§1) In a preliminary study to investigate the above hypothesis we have measured aromatase activity in cultured human hair follicle dermal papilla cell lines and non-follicular skin fibroblasts from body sites with different responses to androgens. Aromatase was measured using the tritiated water released assay (13). The results are summarised as follows:
Fibroblast aromatase was stimulated by pre-incubating cells with testosterone at physiological concentrations (10 nmol). 19 cell lines were studied. Mean fold increase in aromatase activity (+/- SEM) was 2.69+/-0.38 (p<0.02 paired test). In separate experiments on three cell lines the response to a range of concentrations of testosterone and DHT was studied. Testosterone gave a twofold increase in aromatase maximal at 10 nmol. At the same concentration in response to DHT was over twice as great (4.3 fold).
Fibroblast aromatase was stimulated by pre-incubating the cells with testosterone at a physiological concentration (10 nmol). 19 cell lines were studied. Mean fold increase in aromatase activity (+/- SEM) was 2.69+/-0.38 (p<0.02 paired t test). In separate experiments on three cell lines the response to a range of concentrations of testosterone and DHT was studied. Testosterone gave a 2 fold increase in aromatase maximal at 10 nmol. At the same concentration the response to DHT was over twice as great (4.3 fold).

balding = conditions: topical application, humans; cited from earlier work
[4] = tested on: aromatase activity in hair follicle dermal papilla cells; assay: Induction of aromatase in cultured hair follicle dermal papilla cells (tritiated water release assay); format: cell-based, human
Method: as §1
No aromatase was detected in hair follicle dermal papilla cells cultured through any of the above sites (fourteen cell lines).
No aromatase was detected in hair follicle dermal papilla cells cultured from any of the above sites (14 cell lines).

female hair loss = conditions: several small trials, taken orally; cited from earlier work
[5] = substrate: C[C@]12CCC(=O)C=C1CC[C@@H]1[C@@H]2CC[C@]2(C)C(=O)CC[C@@H]12; assay: cells, lysate or membranes; conditions: other: skin fibroblast lines from beard, occipital scalp and frontal scalp; no difference between the three sites
Method: as §2, §3

[6] = read-out: Fold increase in aromatase

Q: Which results are given for C[C@]12CCC(=O)C(O)=C1CC[C@@H]1[C@@H]2CC[C@]2(C)C(=O)CC[C@@H]12 [4-OH androstenedione]?
A: Effect on aromatase activity in scalp tissue (aromatase [1]): reduced activity to background levels; IC50 (aromatase [2]): ~25 nM; Type of inhibition of fibroblast aromatase (kinetic studies) (aromatase [2]; three cell lines): irreversible competitive inhibition

Q: With C[C@]12CCC(=O)C[C@@H]1CC[C@@H]1[C@@H]2CC[C@]2(C)[C@@H](O)CC[C@@H]12 [DHT, dihydrotestosterone] as the molecule, how does the fold induction at 0.01 µM [3, 6] read?
A: 4.3

Q: For Nc1cc(N2CCCCC2)nc(N)[n+]1[O-] [Minoxidil], which “Subjects with modest recovery in early balding” value (balding) is on record?
A: about 30 % of subjects

Q: Which “Stimulation of aromatase in fibroblasts” value ([3]; skin fibroblasts) does the source give for C[C@@H]1C[C@H]2[C@@H]3CCC4=CC(=O)C=C[C@]4(C)[C@@]3(F)[C@@H](O)C[C@]2(C)[C@@]1(O)C(=O)CO [Dexamethasone] here?
A: 10-20 fold

Q: And the “Induction of aromatase in dermal papilla cells” value [4]?
A: induced aromatase

Q: Which fold induction at 0.01 µM [3, 6] does the source give for C[C@]12CC[C@H]3[C@@H](CCC4=CC(=O)CC[C@@]43C)[C@@H]1CC[C@@H]2O [testosterone] here?
A: 2

Q: What about the fold induction at 0.01 µM ([3]; read-out: Mean fold increase in aromatase activity (+/- SEM)) of the same molecule?
A: 2.69 ± 0.38

Q: What about the “Mean fold increase in aromatase activity (+/- SEM)” value ([3]; pre-incubation with 10 nmol, 19 fibroblast cell lines, p<0.02) of the same molecule?
A: 2.69+/-0.38 fold

Q: And the “Fold increase in aromatase” value ([3]; separate experiments on three cell lines, range of concentrations, at 10 nmol (maximal for testosterone))?
A: twofold

Q: What about the “Induction of aromatase in dermal papilla cells” value [4] of the same molecule?
A: failed to induce aromatase

Q: For CC(=O)O[C@]1(C(C)=O)CC[C@H]2[C@@H]3C=C(Cl)C4=CC(=O)[C@@H]5C[C@@H]5[C@]4(C)[C@H]3CC[C@@]21C [cyproterone acetate], which “Effect on the aromatase response to testosterone and DHT” value ([3]; skin fibroblasts, androgen receptor blockade) is on record?
A: inhibited

Q: What about the “Effect in female hair loss” value (female hair loss) of the same molecule?
A: small positive affect

B1: aromatase (Homo sapiens) (protein)
chain: MVLEMLNPIHYNITSIVPEAMPAATMPVLLLTGLFLLVWNYEGTSSIPGPGYCMGIGPLISHGRFLWMGIGSACNYYNRVYGEFMRVWISGEETLIISKSSSMFHIMKHNHYSSRFGSKLGLQCIGMHEKGIIFNNNPELWKTTRPFFMKALSGPGLVRMVTVCAESLKTHLDRLEEVTNESGYVDVLTLLRRVMLDTSNTLFLRIPLDESAIVVKIQGYFDAWQALLIKPDIFFKISWLYKKYEKSVKDLKDAIEVLIAEKRRRISTEEKLEECMDFATELILAEKRGDLTRENVNQCILEMLIAAPDTMSVSLFFMLFLIAKHPNVEEAIIKEIQTVIGERDIKIDDIQKLKVMENFIYESMRYQPVVDLVMRKALEDDVIDGYPVKKGTNIILNIGRMHRLEFFPKPNEFTLENFAKNVPYRYFQPFGFGPRGCAGKYIAMVMMKAILVTLLRRFHVKTLQGQCVESIQKIHDLSLHPDETKNMLEMIFTPRNSDRCLEH
Q: Which Km [5] does the source give for B1 here?
A: 25 nmol
